Measured values published in ChEMBL document CHEMBL1201862, “PubChem BioAssay data set” (2004).
Calls of active or inactive are those of the source.

Columns and labels:
[1] = biological target: T1, Calpain-2 catalytic subunit (Sus scrofa, UniProt P43367); test: pig calpain II inhibitor potency, dose response, biochemical, fluorogenic peptide substrate (AID 1420); type: functional
T1 sequence (P43367 whole entry): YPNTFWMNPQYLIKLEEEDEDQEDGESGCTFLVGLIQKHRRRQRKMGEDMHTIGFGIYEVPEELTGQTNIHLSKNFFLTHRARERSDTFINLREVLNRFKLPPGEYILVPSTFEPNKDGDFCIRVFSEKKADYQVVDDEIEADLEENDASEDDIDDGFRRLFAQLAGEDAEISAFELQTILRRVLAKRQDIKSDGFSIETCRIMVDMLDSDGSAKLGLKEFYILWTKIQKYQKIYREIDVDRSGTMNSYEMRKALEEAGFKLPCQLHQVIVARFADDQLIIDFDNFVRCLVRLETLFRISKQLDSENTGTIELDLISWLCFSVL

[2] = test system: HEK293; test: cells; settings: Homo sapiens
[3] = test system: HEK293; test: cells; settings: Homo sapiens; remark: listed apart in the source
[4] = biological target: T2, DNA repair protein RAD52 homolog (Homo sapiens, UniProt P43351); type: functional, biochemical
T2 sequence (P43351 whole entry): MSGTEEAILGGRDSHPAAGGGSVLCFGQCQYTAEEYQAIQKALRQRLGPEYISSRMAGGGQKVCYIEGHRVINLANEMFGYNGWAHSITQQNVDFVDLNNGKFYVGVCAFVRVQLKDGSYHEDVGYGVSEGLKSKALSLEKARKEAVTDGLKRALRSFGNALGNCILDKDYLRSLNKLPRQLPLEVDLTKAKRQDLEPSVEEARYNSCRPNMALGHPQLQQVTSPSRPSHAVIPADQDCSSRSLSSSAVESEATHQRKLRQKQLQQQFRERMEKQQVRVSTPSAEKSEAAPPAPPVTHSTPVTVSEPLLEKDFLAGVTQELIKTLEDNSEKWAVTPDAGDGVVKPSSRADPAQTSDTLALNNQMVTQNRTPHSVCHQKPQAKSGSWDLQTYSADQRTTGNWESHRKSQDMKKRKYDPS

[5] = microbe, parasite or virus in culture; type: functional; settings: Mycobacterium tuberculosis
[6] = biological target: T3, Corticotropin-releasing factor receptor 2/Corticotropin-releasing factor-binding protein (Homo sapiens, UniProt P24387+Q13324); test: activators of CRF receptor 2 with binding protein – uHTS hits, confirmation (AID 602473); type: functional; settings: read-out: EC50_Mean
T3 sequence (Q13324 whole entry): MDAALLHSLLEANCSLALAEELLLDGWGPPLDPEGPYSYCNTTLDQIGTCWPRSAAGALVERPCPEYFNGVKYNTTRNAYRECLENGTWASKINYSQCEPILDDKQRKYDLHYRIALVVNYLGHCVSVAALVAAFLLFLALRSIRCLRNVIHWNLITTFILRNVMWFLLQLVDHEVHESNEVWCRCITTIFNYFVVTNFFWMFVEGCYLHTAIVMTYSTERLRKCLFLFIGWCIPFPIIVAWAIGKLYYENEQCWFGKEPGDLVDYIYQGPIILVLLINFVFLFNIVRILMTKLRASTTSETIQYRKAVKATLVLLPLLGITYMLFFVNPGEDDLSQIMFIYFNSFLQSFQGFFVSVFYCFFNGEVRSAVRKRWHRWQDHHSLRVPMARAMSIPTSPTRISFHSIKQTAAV
T3 sequence (P24387 whole entry): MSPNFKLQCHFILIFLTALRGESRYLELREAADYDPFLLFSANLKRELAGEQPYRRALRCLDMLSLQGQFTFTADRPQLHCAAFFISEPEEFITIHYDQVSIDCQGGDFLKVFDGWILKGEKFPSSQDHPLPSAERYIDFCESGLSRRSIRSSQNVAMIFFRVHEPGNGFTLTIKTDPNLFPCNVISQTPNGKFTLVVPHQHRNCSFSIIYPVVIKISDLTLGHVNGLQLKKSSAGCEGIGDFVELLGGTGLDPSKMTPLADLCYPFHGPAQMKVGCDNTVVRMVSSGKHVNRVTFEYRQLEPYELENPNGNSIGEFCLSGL

[7] = CRF-BP/CRF-R2 complex antagonists, dose response, cell-based, uHTS hits, 384-well (AID 651639); type: functional, Homo sapiens; settings: read-out: IC50_Mean
[8] = biological target: T3, Corticotropin-releasing factor receptor 2/Corticotropin-releasing factor-binding protein; test: Dose Response confirmation of uHTS hits for small molecule antagonists of the CRF-binding protein and CRF-R2 receptor complex.; type: functional; settings: read-out: IC50_Mean
[9] = cells; type: functional, cell-based
[10] = cells; type: functional, cell-based; remark: listed apart in the source
[11] = biological target: Large T antigen (Simian virus 40, UniProt P03070); type: functional, Betapolyomavirus macacae;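 note: Confirmatory-stage PubChem screen for compounds that inhibit SV40 T antigen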
Large T antigen, sequence (P03070 whole entry): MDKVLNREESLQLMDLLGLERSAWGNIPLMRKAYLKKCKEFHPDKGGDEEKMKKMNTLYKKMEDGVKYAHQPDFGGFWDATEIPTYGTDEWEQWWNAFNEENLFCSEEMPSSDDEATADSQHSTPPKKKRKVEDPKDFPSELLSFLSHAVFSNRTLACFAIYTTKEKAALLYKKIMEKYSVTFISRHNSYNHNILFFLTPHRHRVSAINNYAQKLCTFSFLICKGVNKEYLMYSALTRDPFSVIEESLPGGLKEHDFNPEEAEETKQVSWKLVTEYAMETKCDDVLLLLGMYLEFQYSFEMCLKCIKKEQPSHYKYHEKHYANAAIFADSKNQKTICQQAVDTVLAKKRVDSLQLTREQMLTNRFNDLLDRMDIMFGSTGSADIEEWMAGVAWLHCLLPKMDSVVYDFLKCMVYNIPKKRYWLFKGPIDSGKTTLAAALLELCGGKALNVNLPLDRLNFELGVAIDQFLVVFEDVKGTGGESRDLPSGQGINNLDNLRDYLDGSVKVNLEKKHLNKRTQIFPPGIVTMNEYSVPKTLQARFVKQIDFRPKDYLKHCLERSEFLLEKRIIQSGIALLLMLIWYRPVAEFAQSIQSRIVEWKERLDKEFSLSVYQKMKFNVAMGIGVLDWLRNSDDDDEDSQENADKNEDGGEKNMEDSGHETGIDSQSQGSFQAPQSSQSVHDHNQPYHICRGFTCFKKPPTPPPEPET

[12] = biological target: DNA dC->dU-editing enzyme APOBEC-3G (Homo sapiens, UniProt Q9HC16); test: Dose Response confirmation of small molecule APOBEC3G DNA Deaminase Inhibitors via a fluorescence-based single-stranded DNA deaminase assay. [Related pubchem assays (depositor defined):AID493012, AID493028]; type: functional
DNA dC->dU-editing enzyme APOBEC-3G, sequence (Q9HC16 whole entry): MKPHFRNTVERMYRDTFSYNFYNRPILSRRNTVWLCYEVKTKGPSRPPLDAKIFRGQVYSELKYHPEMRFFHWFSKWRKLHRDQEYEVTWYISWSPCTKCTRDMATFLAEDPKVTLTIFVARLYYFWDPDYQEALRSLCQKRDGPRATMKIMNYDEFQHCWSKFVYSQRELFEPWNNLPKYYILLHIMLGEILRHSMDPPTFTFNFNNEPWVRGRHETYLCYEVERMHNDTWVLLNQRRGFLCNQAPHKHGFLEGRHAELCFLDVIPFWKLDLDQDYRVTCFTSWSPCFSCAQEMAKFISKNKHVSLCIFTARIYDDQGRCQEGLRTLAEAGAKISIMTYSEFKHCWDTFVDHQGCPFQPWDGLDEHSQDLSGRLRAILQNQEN

[13] = biological target: DNA dC->dU-editing enzyme APOBEC-3A (Homo sapiens, UniProt P31941); test: APOBEC3A DNA deaminase inhibitors, dose response, biochemical (AID 504722); type: functional
DNA dC->dU-editing enzyme APOBEC-3A, sequence (P31941 whole entry, the tested form may be a part): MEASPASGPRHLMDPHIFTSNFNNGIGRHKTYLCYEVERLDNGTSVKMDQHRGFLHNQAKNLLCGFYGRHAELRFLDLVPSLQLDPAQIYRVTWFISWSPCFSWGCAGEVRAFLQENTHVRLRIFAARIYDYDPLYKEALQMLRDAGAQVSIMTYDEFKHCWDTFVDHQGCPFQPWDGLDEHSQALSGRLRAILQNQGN

[14] = biological target: T4, Fatty acid synthase (Homo sapiens, UniProt P49327); test: FAS thioesterase domain inhibitors, dose response, biochemical, kinetic fluorescence intensity (AID 624326); type: functional;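 note: rate of fluorescence rise from hydrolysis of a fluorogenic O-methyl fluorescein ester substrate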
T4 sequence (P49327 whole entry, the tested form may be a part): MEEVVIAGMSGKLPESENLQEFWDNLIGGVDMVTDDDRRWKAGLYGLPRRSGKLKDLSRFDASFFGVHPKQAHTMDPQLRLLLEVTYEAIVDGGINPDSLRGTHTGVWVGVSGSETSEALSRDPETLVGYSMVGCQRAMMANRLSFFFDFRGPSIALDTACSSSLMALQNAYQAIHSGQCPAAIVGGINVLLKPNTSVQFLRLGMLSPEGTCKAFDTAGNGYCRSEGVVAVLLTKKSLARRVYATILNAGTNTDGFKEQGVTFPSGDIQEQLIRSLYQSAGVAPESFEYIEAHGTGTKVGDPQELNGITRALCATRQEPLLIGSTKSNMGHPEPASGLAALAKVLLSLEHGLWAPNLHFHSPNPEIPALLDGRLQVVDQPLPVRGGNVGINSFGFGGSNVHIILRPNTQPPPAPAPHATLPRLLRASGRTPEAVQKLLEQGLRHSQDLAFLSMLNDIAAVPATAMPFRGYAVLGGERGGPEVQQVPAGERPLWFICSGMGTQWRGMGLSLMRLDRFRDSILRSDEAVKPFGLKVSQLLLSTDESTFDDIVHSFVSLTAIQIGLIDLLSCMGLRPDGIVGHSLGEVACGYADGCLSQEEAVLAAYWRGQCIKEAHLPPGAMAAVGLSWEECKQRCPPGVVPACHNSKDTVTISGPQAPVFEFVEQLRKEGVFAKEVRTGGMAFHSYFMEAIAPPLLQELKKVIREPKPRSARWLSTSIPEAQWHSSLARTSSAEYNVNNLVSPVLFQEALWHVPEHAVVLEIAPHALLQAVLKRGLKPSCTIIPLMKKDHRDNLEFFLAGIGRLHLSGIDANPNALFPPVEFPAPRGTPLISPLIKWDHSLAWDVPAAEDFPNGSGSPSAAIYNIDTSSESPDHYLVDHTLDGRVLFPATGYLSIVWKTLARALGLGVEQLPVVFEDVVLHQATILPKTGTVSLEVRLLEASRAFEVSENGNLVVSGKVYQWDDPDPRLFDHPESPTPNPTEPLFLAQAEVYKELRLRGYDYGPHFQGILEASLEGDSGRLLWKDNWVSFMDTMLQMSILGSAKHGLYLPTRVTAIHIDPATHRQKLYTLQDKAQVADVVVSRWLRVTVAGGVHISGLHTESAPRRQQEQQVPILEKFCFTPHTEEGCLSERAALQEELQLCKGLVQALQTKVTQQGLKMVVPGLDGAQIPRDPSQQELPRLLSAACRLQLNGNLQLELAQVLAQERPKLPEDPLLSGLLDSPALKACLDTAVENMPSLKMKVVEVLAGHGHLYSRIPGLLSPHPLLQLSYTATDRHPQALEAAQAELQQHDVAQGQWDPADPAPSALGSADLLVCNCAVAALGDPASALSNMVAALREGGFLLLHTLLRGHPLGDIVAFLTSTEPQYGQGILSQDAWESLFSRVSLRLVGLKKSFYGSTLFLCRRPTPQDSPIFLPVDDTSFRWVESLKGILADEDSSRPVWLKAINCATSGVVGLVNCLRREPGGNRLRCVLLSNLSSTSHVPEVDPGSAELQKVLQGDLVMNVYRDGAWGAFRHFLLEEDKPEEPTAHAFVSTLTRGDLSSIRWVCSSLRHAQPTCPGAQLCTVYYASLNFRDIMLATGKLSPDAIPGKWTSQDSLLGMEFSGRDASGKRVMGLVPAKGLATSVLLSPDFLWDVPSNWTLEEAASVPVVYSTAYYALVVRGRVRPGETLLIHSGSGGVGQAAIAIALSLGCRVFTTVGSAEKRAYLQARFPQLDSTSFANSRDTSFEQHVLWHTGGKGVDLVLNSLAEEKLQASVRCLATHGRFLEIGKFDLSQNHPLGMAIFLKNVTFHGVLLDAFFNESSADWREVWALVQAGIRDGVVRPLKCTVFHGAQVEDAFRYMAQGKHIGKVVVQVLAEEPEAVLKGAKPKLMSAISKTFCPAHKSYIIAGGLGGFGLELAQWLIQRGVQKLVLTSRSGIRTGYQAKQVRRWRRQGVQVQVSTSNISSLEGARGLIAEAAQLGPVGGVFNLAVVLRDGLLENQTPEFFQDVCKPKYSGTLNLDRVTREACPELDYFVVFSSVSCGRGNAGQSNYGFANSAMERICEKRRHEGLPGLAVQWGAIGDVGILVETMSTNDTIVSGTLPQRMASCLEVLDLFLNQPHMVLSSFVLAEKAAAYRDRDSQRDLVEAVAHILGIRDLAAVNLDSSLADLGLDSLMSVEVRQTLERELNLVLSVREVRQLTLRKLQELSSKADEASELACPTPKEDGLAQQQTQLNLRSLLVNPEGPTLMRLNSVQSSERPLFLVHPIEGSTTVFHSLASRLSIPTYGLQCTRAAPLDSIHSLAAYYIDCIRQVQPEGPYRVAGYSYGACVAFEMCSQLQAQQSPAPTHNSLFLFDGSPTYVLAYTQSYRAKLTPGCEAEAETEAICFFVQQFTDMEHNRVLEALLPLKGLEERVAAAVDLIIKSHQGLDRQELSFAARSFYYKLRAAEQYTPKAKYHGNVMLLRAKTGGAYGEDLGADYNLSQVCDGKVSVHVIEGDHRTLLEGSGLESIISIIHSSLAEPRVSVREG

[15] = test system: H9c2; test: cells; type: functional, cell-based; settings: Rattus norvegicus, H9c2, Myocardium;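 note: confirmatory concentration-response retest of ultra-high-throughput screening hits for modulation of myocardial damage; cell death induced by hydrogen peroxide oxidative stress; compound pretreatment for 60 min then peroxide exposure for 2 h; potency is for protecting the cells against peroxide damage rather than for killing them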
[16] = biological target: T4, Fatty acid synthase; test: FAS thioesterase domain inhibitors, dose response, biochemical, endpoint fluorescence intensity, uHTS hits (AID 624327); type: functional;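 note: fluorescence from hydrolysis of an O-methyl fluorescein acyl ester substrate by the enzyme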
[17] = THP-1 cell cytotoxicity, dose response, cytotoxicity control for non-replicating M. tuberculosis project (AID 489025); type: functional
[18] = inhibitors of clade B AD8 Env fusion, dose response, cell-based, cherry-pick (AID 652062); type: functional;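 note: luciferase signal from cell-cell fusion driven by HIV-1 clade B AD8 Env; potency is for inhibitors of fusion seen as a drop in luminescence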
[19] = CEM21 lymphoblast cell cytotoxicity, dose response, cytotoxicity control for viral fusion inhibitor project, CellTiter-Glo luminescence, cherry-picked (AID 652042); type: functional, cell-based;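 note: potency for signal decrease meaning cytotoxicity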
[20] = ZM109 Env clade C HIV-1 fusion inhibitors, dose response, HeLa effector, CEM target cells, luciferase, cherry-pick (AID 652058); type: functional, cell-based
[21] = inhibitors of HIV Env-driven cell fusion, dose response, cherry-pick (AID 652057); type: functional, cell-based
[22] = biological target: FAD-linked sulfhydryl oxidase ALR (Homo sapiens, UniProt P55789); test: inhibitors of human ALR sulfhydryl oxidase, dose response, biochemical, H2O2 detection, luminescence, cherry-pick (AID 493248)
FAD-linked sulfhydryl oxidase ALR, sequence (P55789 whole entry): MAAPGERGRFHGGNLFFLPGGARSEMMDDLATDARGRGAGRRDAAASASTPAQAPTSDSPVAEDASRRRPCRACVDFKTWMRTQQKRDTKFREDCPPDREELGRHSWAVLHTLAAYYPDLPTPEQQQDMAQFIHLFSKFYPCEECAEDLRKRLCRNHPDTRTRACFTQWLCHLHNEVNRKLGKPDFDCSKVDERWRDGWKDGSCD

[23] = biological target: Induced myeloid leukemia cell differentiation protein Mcl-1 (Homo sapiens, UniProt Q07820); type: functional
Induced myeloid leukemia cell differentiation protein Mcl-1, sequence (Q07820 whole entry): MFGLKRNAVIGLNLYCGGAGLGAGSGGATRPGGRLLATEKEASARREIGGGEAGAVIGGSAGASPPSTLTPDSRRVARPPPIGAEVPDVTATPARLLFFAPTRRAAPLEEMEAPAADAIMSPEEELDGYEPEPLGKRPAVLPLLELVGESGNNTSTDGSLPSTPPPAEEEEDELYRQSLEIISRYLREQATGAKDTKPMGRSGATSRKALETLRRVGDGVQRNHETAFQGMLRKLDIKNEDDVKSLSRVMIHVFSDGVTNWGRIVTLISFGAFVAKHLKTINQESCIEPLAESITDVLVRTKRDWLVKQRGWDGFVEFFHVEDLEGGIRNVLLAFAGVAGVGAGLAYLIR

[24] = NIH-3T3 fibroblast cytotoxicity, dose response, cytotoxicity control, cell-based, fluorescence, Alamar Blue, secondary assay (AID 2327); type: functional;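 note: NIH-3T3 mouse fibroblasts cultured with fluconazole at 8 µg/mL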
[25] = C. albicans growth with fluconazole, confirmation, fluorescence, retest (AID 2467); type: functional, cell-based
[26] = cytotoxicity in HEK-293T cells, dose response, cytotoxicity control for TCR NF-kB inhibitor project, luminescence, T-cell screen hits (AID 489026); type: functional, cell-based;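 note: cells exposed to compound about 14 hours before the viability readout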
[27] = biological target: Paired box protein Pax-8 (Homo sapiens, UniProt Q06710); test: inhibitors of PAX8-driven TPO luciferase reporter, dose response, RMG-I cells, cherry-pick (AID 687027); type: functional, cell-based;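 note: luciferase reporter driven by Pax8 target thyroperoxidase promoter measured by SteadyGlo luminescence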
Paired box protein Pax-8, sequence (Q06710 whole entry): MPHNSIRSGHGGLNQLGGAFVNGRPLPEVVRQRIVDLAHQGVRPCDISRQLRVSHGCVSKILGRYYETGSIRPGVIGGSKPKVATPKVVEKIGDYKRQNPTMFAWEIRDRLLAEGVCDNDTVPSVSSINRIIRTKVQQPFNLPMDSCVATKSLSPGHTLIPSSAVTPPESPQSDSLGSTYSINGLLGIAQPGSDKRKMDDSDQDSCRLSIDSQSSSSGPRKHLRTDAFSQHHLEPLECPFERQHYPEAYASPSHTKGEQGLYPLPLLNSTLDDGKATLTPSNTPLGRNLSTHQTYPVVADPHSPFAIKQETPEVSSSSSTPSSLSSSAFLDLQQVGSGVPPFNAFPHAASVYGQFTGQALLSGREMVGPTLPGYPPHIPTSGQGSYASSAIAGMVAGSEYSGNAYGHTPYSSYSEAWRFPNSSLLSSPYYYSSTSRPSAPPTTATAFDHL

In the case of `Cc1ccc(C)c(N2CCN(C(=O)C3CCCCN3S(=O)(=O)c3ccc(F)cc3)CC2)c1` (stereo not given), the IC50 [1] was 7.84 µM (not active).
For `C=CCn1c(S)nnc1-c1csc(-c2ccc(OC)c(OC)c2)n1`, the EC50 [2] was > 0.736 µM (active) and the EC50 [3] was > 59.7 µM (inactive).
For `CN/C(=C/[N+](=O)[O-])NCCSCc1ccc(CN(C)C)o1`, the AC50 [4] was 18 µM (active).
For `Cc1cc(OC(=O)c2cccs2)c2c3c(c(=O)oc2c1)CCCC3`, the CC50 [5] was > 40 µM (active), the EC50 [6] was > 53 µM (inactive) and the IC50 [7] was > 20 µM (inactive). The IC50 [8] was 16.4 µM (active).
With `CC(C)COc1cccc(C(=O)NNC(=O)C2COc3ccccc3O2)c1` (stereo not given) the EC50 [9] was > 350 µM (not active) and the EC50 [10] was > 350 µM (not active).
In the case of `Cc1nc(C)c(-c2csc(Nc3ccc(N)cc3)n2)s1`, the IC50 [11] was 11.5 µM (active).
In the case of `O=C(NC(=O)c1ccccc1O)c1ccc(C(F)(F)F)cc1`, the EC50 [6] was 9.51 µM (active), the IC50 [7] was 15 µM (active) and the IC50 [8] was 4.31 µM (active).
For `CC(NC(=O)C12CC3CC(CC(O)(C3)C1)C2)c1ccc(Cl)cc1Cl` (stereo not given), the EC50 [10] was > 350 µM (not active).
In the case of `N#CC1=C2SCN(c3ccccc3)CN2C(=O)CC1c1c(Cl)cccc1Cl` (stereo not given), the IC50 [12] was 4.44 µM (active) and the IC50 [13] was > 100 µM (inactive).
For `CC(=O)N1CCN(c2ccccc2NC(=O)c2ccc(-c3cccc([N+](=O)[O-])c3)o2)CC1`, the IC50 [14] was 12.1 µM (active), the IC50 [15] was > 79 µM (inactive) and the IC50 [16] was 8.81 µM (active).
In the case of `Cc1ccc2c(c1)C(=O)C(=O)N2CCCOc1ccccc1`, the CC50 [17] was > 40 µM (active).
For `COc1cccc(CNC(=O)COC(=O)c2cc([N+](=O)[O-])ccc2N2CCCC2)c1`, the IC50 [14] was 1.23 µM (active) and the IC50 [16] was 3.18 µM (active).
For `CSc1ccccc1NC(=O)COc1ccccc1C`, the IC50 [1] was 8.86 µM (not active).
With `Cc1ccc(S(=O)(=O)c2nnn3c2nc(N2CCOCC2)c2ccccc23)cc1C` the EC50 [6] was > 53 µM (inactive), the IC50 [7] was 7.26 µM (active) and the IC50 [8] was 5.78 µM (active).
With `CC1Cc2ccccc2N1C(=O)COC(=O)Cn1nnc(-c2ccccc2)n1` (stereo not given) the IC50 [1] was 8.56 µM (not active).
With `CC(C)(C)c1ccc(C(=O)NCC(=O)OCc2ccc([N+](=O)[O-])cc2)cc1` the IC50 [14] was 1.69 µM (active) and the IC50 [16] was 2.66 µM (active).
With `CCOc1cc(CNc2ccc(N3CCN(C(C)=O)CC3)cc2)cc(Br)c1OC` the IC50 [11] was 8.75 µM (active).
With `CCN(CC(=O)Nc1ccc2c(c1)OCCO2)CC(=O)Nc1ccc2c(c1)OCO2` the EC50 [9] was > 350 µM (not active) and the EC50 [10] was > 350 µM (not active).
With `CC(C(=O)c1ccc(-c2ccccc2)cc1)[n+]1cccc(NC(=O)c2ccccc2)c1` (stereo not given) the AC50 [4] was 19.1 µM (active).
In the case of `O=C1NC(=S)N(C2CC2)C(=O)/C1=C/NNc1ccccc1`, the IC50 [11] was 8.87 µM (active).
With `Cn1c(N)c(C(=O)COC(=O)CNS(=O)(=O)c2ccc(Cl)c(Cl)c2)c(=O)n(C)c1=O` the EC50 [6] was > 53 µM (inactive), the IC50 [7] was 9.63 µM (active) and the IC50 [8] was 30.8 µM (active).
For `OC(CN1CCNCC1)Cn1c2ccccc2c2ccccc21` (stereo not given), the AC50 [4] was 20.7 µM (active).
With `CN(C)CCNC(=O)c1cccc(-c2cnc3c(NC=O)cc(/C=C/c4ccccc4)cn23)c1` the AC50 [4] was 2.21 µM (active).
With `CCOC(=O)c1ccc(/N=c2\sc(C(=O)OC)cc(=O)n2CCCN2CCOCC2)cc1` the EC50 [6] was > 53 µM (inactive), the IC50 [7] was 4.53 µM (active) and the IC50 [8] was 4.49 µM (active).
For `Cc1cc([N+](=O)[O-])nn1CC(=O)N/N=C/c1ccccc1Br`, the IC50 [14] was 7.28 µM (active) and the IC50 [16] was 10.3 µM (active).
In the case of `Cc1csc(N(C(=O)CCNC(=O)c2ccc([N+](=O)[O-])cc2)c2ccccc2)n1`, the IC50 [14] was 4.74 µM (active) and the IC50 [16] was 5.73 µM (active).
In the case of `O=C(C[C@H]1CC[C@@H](NC(=O)c2cccc(F)c2)[C@@H](CO)O1)NCc1ccc(Oc2ccccc2)cc1`, the AC50 [18] was 1.2 µM (active), the AC50 [19] was 58.1 µM (active) and the AC50 [20] was 1.21 µM (active). The AC50 [21] was 0.525 µM (active).
For `C[C@H](C(=O)N(C)C[C@@H]1OCc2ccccc2-c2c(n(C)c3ccccc23)C(=O)N([C@@H](C)CO)C[C@H]1C)c1ccccc1`, the AC50 [18] was 8.67 µM (active), the AC50 [19] was 22.5 µM (active) and the AC50 [20] was 12 µM (active). The AC50 [21] was 4.94 µM (active).
In the case of `COc1cccc(/C=N/n2c(S)nnc2-c2cc(C)[nH]n2)c1OC`, the AC50 [22] was 4.04 µM (active), the IC50 [12] was 3.89 µM (active) and the IC50 [13] was > 100 µM (inactive).
In the case of `Cn1cccc1/C=N/n1c(S)nnc1-c1ccco1`, the IC50 [12] was 3.92 µM (active) and the IC50 [13] was > 100 µM (inactive).
In the case of `CCOc1cc(/C=N/Nc2nc(-c3cccs3)c(NC(C)=O)s2)ccc1O`, the IC50 [23] was 3.51 µM (active) and the IC50 [11] was 30.5 µM (active).
For `Sc1nnc(-c2ccccc2)n1/N=C/c1cccs1`, the IC50 [12] was 1.81 µM (active), the IC50 [13] was > 100 µM (inactive) and the EC50 [24] was > 160 µM (inactive). For the same compound, the EC50 [25] was 2.56 µM (active).
For `COc1ccc(OC)c(-c2nnc3n2N=C(c2ccc(OC)c(OC4CCCC4)c2)CS3)c1`, the IC50 [26] was 28.3 µM (inactive) and the AC50 [27] was 3.49 µM (active).
With `O=c1[nH]c(=O)n([C@@H]2O[C@H](CO)[C@@H](O)[C@H]2O)cc1F` [5-FLUOROURIDINE] the EC50 [2] was > 59.6 µM (inactive) and the EC50 [3] was > 59.6 µM (inactive).
